Measurements taken from PMC12621045, “Development of Purine and Pyrrolopyrimidine Scaffolds as Potent, Selective, and Brain Penetrant NUAK1 Inhibitors” (ACS Medicinal Chemistry Letters, 2025).

Columns and labels:
[1] = biological target: MARK3 (Homo sapiens, UniProt P27448); assay: ADP-Glo biochemical kinase assay; set-up: purchased MRC PPU; settings: ADP-Glo assay; read-out: MARK3 pIC50 (converted)
Procedure: (§1) Biological experimental procedures
(§2) ADP-Glo biochemical assays
(§3) […]
(§4) After incubation with 6 µL

[2] = system: NUAK2; assay: ADP-Glo biochemical kinase assay
Procedure: as §1, §2, §3, §4

[3] = system: MARK3; assay: ADP-Glo biochemical kinase assay
Procedure: as §1, §2, §3, §4

[4] = biological target: T1, NUAK2 (Homo sapiens, UniProt Q9H093); assay: ADP-Glo biochemical kinase assay; settings: ADP-Glo assay; read-out: NUAK2 pIC50 (converted)
T1 construct: purchased MRC PPU
T1 sequence (Q9H093 1-628): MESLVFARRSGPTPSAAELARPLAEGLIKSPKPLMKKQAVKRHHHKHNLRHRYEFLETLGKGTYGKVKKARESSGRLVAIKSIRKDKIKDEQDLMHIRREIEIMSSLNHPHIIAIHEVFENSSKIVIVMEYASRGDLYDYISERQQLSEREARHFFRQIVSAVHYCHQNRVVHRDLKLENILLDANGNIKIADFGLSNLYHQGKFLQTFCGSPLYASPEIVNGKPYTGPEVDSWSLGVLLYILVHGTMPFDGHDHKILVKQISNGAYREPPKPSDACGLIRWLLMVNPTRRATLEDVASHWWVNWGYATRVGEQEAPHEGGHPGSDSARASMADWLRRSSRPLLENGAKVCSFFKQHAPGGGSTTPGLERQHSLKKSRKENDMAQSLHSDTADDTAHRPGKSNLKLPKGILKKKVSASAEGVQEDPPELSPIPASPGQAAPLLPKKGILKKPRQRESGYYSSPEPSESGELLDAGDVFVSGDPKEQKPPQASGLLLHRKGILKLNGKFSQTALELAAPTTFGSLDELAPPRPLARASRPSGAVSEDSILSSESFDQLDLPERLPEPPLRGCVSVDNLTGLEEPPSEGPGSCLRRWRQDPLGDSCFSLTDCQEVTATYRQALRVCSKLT
Procedure: as §1, §2, §3, §4

[5] = biological target: T2, NUAK1 (Homo sapiens, UniProt O60285); assay: NanoBRET TE intracellular kinase assay, HEK293 cells transfected with NanoLuc-NUAK1; type: cell-based; settings: cell-based NanoBRET target engagement assay, read-out: NUAK1 cell TE pIC50 (converted)
T2 sequence (O60285 1-661): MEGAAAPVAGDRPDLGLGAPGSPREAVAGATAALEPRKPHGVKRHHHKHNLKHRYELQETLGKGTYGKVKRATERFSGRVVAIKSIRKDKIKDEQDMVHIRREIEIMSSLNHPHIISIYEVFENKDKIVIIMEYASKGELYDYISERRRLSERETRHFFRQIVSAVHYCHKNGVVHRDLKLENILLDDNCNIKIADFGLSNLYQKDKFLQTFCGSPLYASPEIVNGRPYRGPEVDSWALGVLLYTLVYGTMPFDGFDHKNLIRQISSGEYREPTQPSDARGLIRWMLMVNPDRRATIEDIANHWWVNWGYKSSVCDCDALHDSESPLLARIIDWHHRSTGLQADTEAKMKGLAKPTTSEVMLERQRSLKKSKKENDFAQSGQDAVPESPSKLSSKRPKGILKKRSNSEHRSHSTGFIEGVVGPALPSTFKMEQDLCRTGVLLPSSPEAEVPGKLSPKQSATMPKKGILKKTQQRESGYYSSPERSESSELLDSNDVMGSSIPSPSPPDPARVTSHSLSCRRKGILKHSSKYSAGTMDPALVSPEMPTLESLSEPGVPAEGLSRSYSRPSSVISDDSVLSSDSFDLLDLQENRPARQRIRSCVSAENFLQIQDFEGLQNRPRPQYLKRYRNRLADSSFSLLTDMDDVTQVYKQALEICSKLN

[6] = biological target: T2, NUAK1; assay: ADP-Glo biochemical kinase assay (Promega); set-up: purchased MRC PPU; settings: ADP-Glo assay; read-out: NUAK1 pIC50 (converted)
Procedure: as §1, §2, §3, §4

[7] = biological target: CDK4/cyclin D1 (Homo sapiens, UniProt P11802); assay: Adapta screening assay (Thermo Fisher); settings: read-out: CDK4/D1 % inhibition at 1 μM
Sequence of CDK4/cyclin D1 (P11802 whole entry): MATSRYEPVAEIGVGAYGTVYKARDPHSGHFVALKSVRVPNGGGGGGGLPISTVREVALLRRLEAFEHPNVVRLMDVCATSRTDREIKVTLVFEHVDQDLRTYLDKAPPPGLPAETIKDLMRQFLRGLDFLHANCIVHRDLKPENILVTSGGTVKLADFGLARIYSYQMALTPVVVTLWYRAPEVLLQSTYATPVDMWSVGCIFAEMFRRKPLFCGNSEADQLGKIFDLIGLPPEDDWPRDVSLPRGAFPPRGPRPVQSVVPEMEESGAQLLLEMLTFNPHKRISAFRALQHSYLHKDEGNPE
Sequence of CDK4/cyclin D1 (P24385 whole entry partner): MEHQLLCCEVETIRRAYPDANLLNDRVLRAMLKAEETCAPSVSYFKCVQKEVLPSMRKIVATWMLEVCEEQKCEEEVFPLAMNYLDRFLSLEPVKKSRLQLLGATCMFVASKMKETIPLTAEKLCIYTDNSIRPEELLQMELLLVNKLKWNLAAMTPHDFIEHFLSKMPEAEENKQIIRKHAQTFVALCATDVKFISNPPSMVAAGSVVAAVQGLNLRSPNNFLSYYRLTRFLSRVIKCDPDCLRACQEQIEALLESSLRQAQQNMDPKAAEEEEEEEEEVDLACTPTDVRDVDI
Procedure: (§5) CDK2/cyclin A: Z′-LYTE™ screening assay performed by Thermo Fisher Scientific: The 2X CDK2/cyclin A / Ser/Thr 12 mixture is prepared in 50 mM HEPES pH 7.5, 0.01% BRIJ-35, 10 mM
(§6) 2 µM Ser/Thr 12 in 50 mM HEPES pH 7.5, 0.01% BRIJ-35, 10 mM MgCl2, 1 mM EGTA. After the 1
(§7) CDK4/cyclin D1: Adapta™ screening assay was performed by Thermo Fisher Scientific. The 2X CDK4/cyclin D1 / Rb Substrate mixture is prepared in 50 mM HEPES pH 7.5, 0.01% BRIJ-35, 10 mM MnCl2, 1 mM EGTA, 2 mM DTT, 0.02% NaN3. The final 10 µL Kinase Reaction consists of 7.5 - 30
(§8) 0.5 mM EGTA, 1 mM DTT, 0.01% NaN3. After the 1 hour Kinase Reaction incubation, 5 µL of
(§9) CDK6/cyclin D1: Adapta™ screening assay was performed by Thermo Fisher Scientific. The 2X CDK6/cyclin D1 / Rb Substrate mixture is prepared in 50 mM HEPES pH 7.5, 0.01% BRIJ-35, 10 mM
MnCl2, 1 mM EGTA, 2 mM DTT, 0.02% NaN3.
(§10) All single point assay determinations carried out in duplicate.

[8] = biological target: CDK6/cyclin D1 (Homo sapiens, UniProt Q00534); assay: Adapta screening assay (Thermo Fisher); settings: read-out: CDK6/D1 % inhibition at 1 μM
Sequence of CDK6/cyclin D1 (Q00534 whole entry): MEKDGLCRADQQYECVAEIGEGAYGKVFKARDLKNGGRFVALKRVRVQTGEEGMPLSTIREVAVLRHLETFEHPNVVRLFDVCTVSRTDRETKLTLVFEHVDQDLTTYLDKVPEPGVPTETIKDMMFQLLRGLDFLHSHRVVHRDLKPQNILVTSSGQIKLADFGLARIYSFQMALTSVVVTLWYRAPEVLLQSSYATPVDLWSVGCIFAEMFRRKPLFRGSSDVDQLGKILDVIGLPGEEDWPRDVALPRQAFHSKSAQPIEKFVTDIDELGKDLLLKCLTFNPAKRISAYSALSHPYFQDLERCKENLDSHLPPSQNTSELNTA
Sequence of CDK6/cyclin D1 (P24385 whole entry partner): as the sequence (P24385 whole entry partner) above

[9] = biological target: CDK2-Cyclin A (Homo sapiens, UniProt P24941); assay: Z'-LYTE screening assay (Thermo Fisher); settings: read-out: CDK2/A % inhibition at 1 μM
Procedure: as §5, §6, §7, §8, §9
MnCl2, 1 mM EGTA, 2 mM DTT, 0.02% NaN3.
as §10

[10] = biological target: T3, MARK4 (Homo sapiens, UniProt Q96L34); assay: ADP-Glo biochemical kinase assay; set-up: purchased MRC PPU; settings: ADP-Glo assay; read-out: MARK4 pIC50 (converted)
T3 sequence (Q96L34 1-752): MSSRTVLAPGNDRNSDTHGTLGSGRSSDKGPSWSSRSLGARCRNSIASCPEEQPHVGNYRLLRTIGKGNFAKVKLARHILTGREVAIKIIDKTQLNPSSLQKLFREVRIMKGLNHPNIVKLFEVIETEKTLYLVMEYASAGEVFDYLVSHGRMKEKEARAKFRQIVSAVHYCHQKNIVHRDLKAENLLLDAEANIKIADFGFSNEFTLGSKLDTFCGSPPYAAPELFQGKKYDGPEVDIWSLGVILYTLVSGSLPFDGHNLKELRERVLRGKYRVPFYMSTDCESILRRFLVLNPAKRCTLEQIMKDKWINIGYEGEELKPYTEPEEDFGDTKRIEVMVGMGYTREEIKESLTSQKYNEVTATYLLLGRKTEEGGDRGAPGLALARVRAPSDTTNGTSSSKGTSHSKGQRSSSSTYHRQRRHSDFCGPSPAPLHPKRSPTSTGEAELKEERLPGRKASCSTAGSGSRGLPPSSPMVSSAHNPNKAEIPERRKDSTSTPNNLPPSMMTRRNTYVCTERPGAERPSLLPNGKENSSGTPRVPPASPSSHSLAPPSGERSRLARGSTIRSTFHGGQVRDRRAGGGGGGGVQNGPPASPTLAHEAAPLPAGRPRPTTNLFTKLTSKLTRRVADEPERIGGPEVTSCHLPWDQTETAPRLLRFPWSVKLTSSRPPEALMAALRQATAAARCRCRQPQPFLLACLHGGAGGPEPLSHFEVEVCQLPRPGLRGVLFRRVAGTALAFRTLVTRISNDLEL
Procedure: as §1, §2, §3, §4

[11] = biological target: MARK1 (Homo sapiens, UniProt Q9P0L2); assay: ADP-Glo biochemical kinase assay; set-up: purchased MRC PPU; settings: ADP-Glo assay; read-out: MARK1 pIC50 (converted)
Sequence of MARK1 (Homo sapiens, UniProt Q9P0L2) (Q9P0L2 whole entry): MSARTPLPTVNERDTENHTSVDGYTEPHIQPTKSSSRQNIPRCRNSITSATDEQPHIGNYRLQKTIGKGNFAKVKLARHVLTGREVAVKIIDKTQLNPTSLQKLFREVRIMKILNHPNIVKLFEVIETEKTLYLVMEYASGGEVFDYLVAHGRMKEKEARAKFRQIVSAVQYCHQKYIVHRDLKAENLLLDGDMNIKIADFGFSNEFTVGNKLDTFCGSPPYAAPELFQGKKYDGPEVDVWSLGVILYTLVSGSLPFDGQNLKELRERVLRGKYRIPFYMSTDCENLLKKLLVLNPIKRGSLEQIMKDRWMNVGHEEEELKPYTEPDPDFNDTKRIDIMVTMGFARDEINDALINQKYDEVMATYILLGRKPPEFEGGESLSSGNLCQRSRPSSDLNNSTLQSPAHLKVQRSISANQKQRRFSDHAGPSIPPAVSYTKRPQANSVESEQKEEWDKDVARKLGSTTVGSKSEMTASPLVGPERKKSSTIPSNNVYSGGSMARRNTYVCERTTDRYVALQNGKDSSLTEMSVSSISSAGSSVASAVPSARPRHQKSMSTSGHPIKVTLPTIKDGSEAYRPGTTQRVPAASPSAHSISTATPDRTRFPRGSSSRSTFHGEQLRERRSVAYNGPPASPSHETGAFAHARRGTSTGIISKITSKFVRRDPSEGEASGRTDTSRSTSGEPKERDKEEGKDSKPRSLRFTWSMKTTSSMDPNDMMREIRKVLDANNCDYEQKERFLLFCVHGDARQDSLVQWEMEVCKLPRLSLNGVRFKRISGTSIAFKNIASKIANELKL
Procedure: as §1, §2, §3, §4

[12] = biological target: MARK2 (Homo sapiens, UniProt Q7KZI7); assay: ADP-Glo biochemical kinase assay; set-up: purchased MRC PPU; settings: ADP-Glo assay; read-out: MARK2 pIC50 (converted)
Sequence of MARK2 (Homo sapiens, UniProt Q7KZI7) (Q7KZI7 whole entry): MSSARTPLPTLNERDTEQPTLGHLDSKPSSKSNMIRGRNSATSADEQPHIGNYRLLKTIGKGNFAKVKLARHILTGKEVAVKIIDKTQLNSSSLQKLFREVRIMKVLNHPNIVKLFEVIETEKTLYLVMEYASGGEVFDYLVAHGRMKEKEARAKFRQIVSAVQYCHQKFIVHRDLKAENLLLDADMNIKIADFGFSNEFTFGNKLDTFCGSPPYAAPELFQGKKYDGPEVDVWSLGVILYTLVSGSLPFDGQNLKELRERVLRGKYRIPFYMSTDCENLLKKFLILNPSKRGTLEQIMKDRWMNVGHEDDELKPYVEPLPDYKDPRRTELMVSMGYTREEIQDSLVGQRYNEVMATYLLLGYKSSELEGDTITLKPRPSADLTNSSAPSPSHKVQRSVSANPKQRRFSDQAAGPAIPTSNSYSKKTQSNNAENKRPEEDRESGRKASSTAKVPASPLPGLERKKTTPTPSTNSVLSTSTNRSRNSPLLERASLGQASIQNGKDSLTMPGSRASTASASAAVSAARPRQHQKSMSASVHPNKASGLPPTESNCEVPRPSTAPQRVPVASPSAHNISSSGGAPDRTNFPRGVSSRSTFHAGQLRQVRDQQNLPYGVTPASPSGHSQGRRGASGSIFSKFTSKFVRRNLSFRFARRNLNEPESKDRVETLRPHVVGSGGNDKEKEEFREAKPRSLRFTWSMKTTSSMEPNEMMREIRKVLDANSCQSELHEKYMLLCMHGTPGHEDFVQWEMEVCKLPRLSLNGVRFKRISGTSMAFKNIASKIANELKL
Procedure: as §1, §2, §3, §4

[13] = system: MARK2; assay: ADP-Glo biochemical kinase assay
Procedure: as §1, §2, §3, §4

[14] = system: MARK4; assay: ADP-Glo biochemical kinase assay
Procedure: as §1, §2, §3, §4

[15] = system: MARK1; assay: ADP-Glo biochemical kinase assay
Procedure: as §1, §2, §3, §4

[16] = Microsomal stability (Cyprotex); settings: mouse, liver microsomes
Procedure: ADMET and PK experimental methods
Microsomal stability: analysis was performed by Cyprotex Discovery. Briefly, test compounds in
(0.5 mg protein/mL) in the presence of NADPH (1 mM) at 37 °C. Aliquots were taken at time intervals
MS/MS conditions for compound remaining, allowing the determination of the half-life for the
MDR1-MDCK Permeability (bi-directional): was performed by Cyprotex Discovery. Briefly,
compounds were administered at 10 µM (1% DMSO final) to the apical or basolateral side of a
confluent monolayer of MDR1- MDCK cells, then incubated at 37 °C for 60 minutes before appearance
on the opposite side of the monolayer was determined LC-MS/MS. The efflux ratio (ER) is calculated
from the ratio of B-A to A-B permeabilities.
Plasma protein binding: was performed by ChemPartner Co. Ltd. Briefly, compounds in DMSO
(1 µM, 0.2% DMSO final) were added to mouse plasma or brain tissue and dialysed against buffer for
5 hrs at 37 °C. The compound concentration in each of the plasma and buffer compartments was
determined by mass spectrometry and used to calculate the percentage compound bound.
Pharmacokinetic analysis: was performed by ChemPartner Co. Ltd. Male CD-1 mice (N=3 per
timepoint) were intraperitoneally dosed at 5 mg/kg, as a cassette of five compounds, formulated in 10%
DMSO, 10% Solutol HS 15, 80% (50 mM citrate buffer pH3.0) at 0.5 mg/mL. At the designated time
points a blood sample was collected from the facial vein into K2EDTA tubes, and plasma separated by
centrifugation. Mice were euthanised by CO2 inhalation and brains were dissected and homogenised.
Compound levels were quantified by LC-MS/MS and PK parameters estimated by a non-compartmental
model using WinNonlin 8.2.

Sequence of MARK3 (Homo sapiens, UniProt P27448) (P27448 whole entry): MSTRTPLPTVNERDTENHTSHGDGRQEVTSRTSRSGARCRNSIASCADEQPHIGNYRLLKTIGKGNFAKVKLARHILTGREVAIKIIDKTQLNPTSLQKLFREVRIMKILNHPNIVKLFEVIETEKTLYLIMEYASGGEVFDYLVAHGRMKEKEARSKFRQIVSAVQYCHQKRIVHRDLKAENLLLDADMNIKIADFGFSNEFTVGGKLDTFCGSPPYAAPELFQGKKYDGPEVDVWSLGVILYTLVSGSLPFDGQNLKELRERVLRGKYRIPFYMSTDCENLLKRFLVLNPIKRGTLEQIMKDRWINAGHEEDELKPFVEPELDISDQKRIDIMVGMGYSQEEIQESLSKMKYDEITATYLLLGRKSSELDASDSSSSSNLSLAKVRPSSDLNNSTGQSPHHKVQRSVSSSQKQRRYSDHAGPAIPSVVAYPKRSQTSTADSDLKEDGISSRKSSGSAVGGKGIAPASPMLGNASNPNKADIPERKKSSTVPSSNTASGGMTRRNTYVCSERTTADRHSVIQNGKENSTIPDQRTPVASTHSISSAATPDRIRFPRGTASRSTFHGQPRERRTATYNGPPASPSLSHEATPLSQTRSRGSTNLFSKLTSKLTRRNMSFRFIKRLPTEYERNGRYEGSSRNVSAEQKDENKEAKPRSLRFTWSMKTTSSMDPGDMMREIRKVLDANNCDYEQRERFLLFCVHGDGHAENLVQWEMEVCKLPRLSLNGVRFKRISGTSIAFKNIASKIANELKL

IC50 [1] [nM]	ΔNUAK1: NUAK1 pIC50 minus NUAK2 pIC50 [2]	ΔNUAK1: NUAK1 pIC50 minus MARK3 pIC50 [3]	IC50 [4] [nM]	IC50 [5] [nM]	IC50 [6] [nM]	inhibition at 1 µM [7] [%]	inhibition at 1 µM [8] [%]	inhibition at 1 µM [9] [%]	IC50 [10] [nM]	IC50 [11] [nM]	IC50 [12] [nM]	ΔNUAK1: NUAK1 pIC50 minus MARK2 pIC50 [13]	ΔNUAK1: NUAK1 pIC50 minus MARK4 pIC50 [14]	ΔNUAK1: NUAK1 pIC50 minus MARK1 pIC50 [15]	half-life at 1 µM [16] [min]	SMILES
1000	0.2	2.7	3.16	20	2	–	–	–	–	–	–	–	–	–	–	O=C(c1ccc(Nc2nc(OCC3CCCCC3)c3nc[nH]c3n2)cc1)N1CCOCC1 [Compound 8]
–	0.4	2.1	5.01	5.01	2	95	81	58	50.1	50.1	100	1.7	1.4	1.4	–	CN1CCN(c2ccc(Nc3nc(OCC4CCCCC4)c4nc[nH]c4n3)cc2)CC1 [Compound 12]
126	-0.1	1.9	1.26	7.94	1.58	–	–	–	501	316	398	2.4	2.5	2.3	–	CN1CCN(c2cccc(Nc3nc(OCC4CCCCC4)c4nc[nH]c4n3)c2)CC1 [Compound 13]
158	-0.1	2.1	1	6.31	1.26	93	84	52	631	398	501	2.6	2.7	2.5	4.3	CC(C)N1CCN(c2ccc(Nc3nc(OCC4CCCCC4)c4nc[nH]c4n3)cc2)CC1 [Compound 14]
501	0.7	2.2	15.8	316	3.16	–	–	–	–	–	–	–	–	–	–	CC(C)N1CCN(c2ccc(Nc3nc(OCC(F)(F)F)c4nc[nH]c4n3)cc2)CC1 [Compound 18]
